Measured values as given in patent US20230270752A1, “METHODS OF TREATING PHELAN MCDERMID SYNDROME USING FARNESYL DIBENZODIAZEPINONES” (AMO Pharma Ltd., priority 2017, published 2023).
“Also recorded” adds a separate entry of the source.

Legend:
[1] = system: person with a genetically confirmed diagnosis of Phelan McDermid Syndrome; assay: Clinical assessment of seizures and behavior in a Phelan McDermid Syndrome subject; assay type: in vivo; conditions: human PMS subject
Method: A person with a genetically confirmed diagnosis of Phelan McDermid Syndrome was administered AMO-01.
(§1) The study drug was prepared from a sterile bulk formulation containing 32.8 mg/mL (3.15% w/w) of the active drug substance dissolved in sterile 0.9% saline solution to produce an isotonic final dosing formulation. Each drug product vial contained 70 mg of AMO-01 drug substance in 2.134 mL of formulation (plus 2% overage). This corresponded to a total drug content of 71.4 mg of active drug substance per 2.176 mL of formula. AMO-01 was administered as a single dose via intravenous infusions over a 6 hour period, with the total dose administered as 120 mg/m^2.
Seizure frequency and Visual Evoked Potentials (VEPs) were assessed alongside clinical measures. VEPs provide a noninvasive technique to evaluate the functional integrity of visual pathways in the brain from the retina to the visual cortex via the optic nerve/optic radiations. The VEP is recorded from the head’s surface, over the visual cortex, and is extracted from ongoing EEG through signal averaging. VEPs reflect the sum of excitatory and inhibitory postsynaptic potentials occurring on apical dendrites (Zemon et al., 1986) which modulate excitatory and inhibitory signals received by the pyramidal cells. The major positive and negative peaks and troughs in VEP waveforms reflect different cellular events. The contrast-reversing checkerboard stimulus used in this study produces a positive peak at approximately 60 ms (P0 or P60), reflecting activation of the primary visual cortex from the lateral geniculate nucleus. A negative peak at approximately 75 ms (N0 or N75) reflecting depolarization and glutamatergic postsynaptic activity spreading to the superficial layers of primary visual cortex, and a positive peak at approximately 100 ms (P1 or P100) reflecting superficial hyperpolarization and GABAergic activity (Zemon et al., 1980). VEPs have been used in clinical trials; for example, an antiepileptic drug (gabapentin; Conte et al., 2009) and an infant formula (O′Connor et al., 2009). Both received FDA approval based in part on positive findings from VEP studies. Data from ongoing clinical trials at Mount Sinai provide support for use of VEPs as a measure of treatment response. Assessments of clinical response were made before treatment, after six hours of treatment, and one week, two weeks and four weeks after treatment according to the schematic in FIG. 8.

[2] = system: Shank3b KO transgenic model of PMS; assay: Light dark box test (anxiety); assay type: in vivo, mice; conditions: single dose 30 mg/kg i.p., 4 hours before testing
Method: (§2) Shank3b^-/- homozygous mice with deletions of exons 13-16, initially obtained from the Jackson Laboratory, and wild type (WT) littermates were generated on a C57BL/6J background and repeatedly backcrossed onto a C57BL/6J background for more than eight generations. The resulting Shank3 knockout (KO) mice were housed in groups of the same genotype in a temperature and humidity controlled room with a 12-h light-dark cycle (lights on 7 am to 7 pm). Room temperature and humidity were recorded continuously in the holding room. Testing was conducted during the light phase. Food and water were available ad libitum. Testing was conducted on Shank3 knockout mice and their wild type littermates, with N = 10 mice per treatment group, tested at two months of age during behavioral experiments. Mice were housed in commercial plastic cages and experiments were conducted in line with the requirements of the UK Animals (Scientific Procedures) Act, 1986. All experiments were conducted with experimenters blind to genotype and drug treatment. Animals were allowed a minimum acclimatization period of one week prior to performing any experiment. Only healthy animals were used. No prophylactic or therapeutic treatment was to be administered during the acclimatization period. […]

[3] = system: Shank3b KO transgenic model of PMS; assay: Social recognition and response to social novelty test; assay type: in vivo, mice; conditions: single dose 30 mg/kg i.p.
Method: as §2

[4] = system: Shank3 knockout transgenic mouse model of Phelan McDermid Syndrome; assay: Behavioral testing battery overall (five days after single dose); assay type: in vivo, mice
Method: Shank3b^-/- homozygous mice with deletions of exons 13-16, initially obtained from the Jackson Laboratory, and wild type (WT) littermates were generated on a C57BL/6J background and repeatedly backcrossed onto a C57BL/6J background for more than eight generations. The resulting Shank3 knockout (KO) mice were housed in groups of the same genotype in a temperature and humidity controlled room with a 12-h light-dark cycle (lights on 7 am to 7 pm). Room temperature and humidity were recorded continuously in the holding room. Testing was conducted during the light phase. Food and water were available ad libitum. Testing was conducted on Shank3 knockout mice and their wild type littermates, with N = 10 mice per treatment group, tested at two months of age during behavioral experiments. Mice were housed in commercial plastic cages and experiments were conducted in line with the requirements of the UK Animals (Scientific Procedures) Act, 1986. All experiments were conducted with experimenters blind to genotype and drug treatment. Animals were allowed a minimum acclimatization period of one week prior to performing any experiment. Only healthy animals were used. No prophylactic or therapeutic treatment was to be administered during the acclimatization period.
AMO-01 from AMO Pharma Ltd was administered to mice as follows: • A. AMO-01 at a single dose of 30 mg/kg intraperitoneally in a vehicle of ethanol, PEG 400 and polysorbate 80 and 5% dextrose • B. Vehicle dosed intraperitoneally as 15 ml/kg Groups of N = 10 mice were treated 4 hours before testing on the first day of testing. Five days of testing were undertaken following the single intraperitoneal dose administered on Day 1.
The following groups were studied: • 1. Shank3b^-/- knockout mice + vehicle, N = 10 • 2. Shank3b^-/- knockout mice + AMO-01 30 mg/kg i.p., N = 10 • 3. Wild Type litter mates + vehicle, N = 10 • 4. Wild Type litter mates + AMO-01 30 mg/kg i.p., N = 10
The following tests were administered.

[5] = system: Shank3b KO transgenic model of PMS; assay: Beam walking test (sensory motor function); assay type: in vivo, mice; conditions: single dose 30 mg/kg i.p.
Method: as §2
Day 4: Sensory motor function as assessed by beam walking tests. […]

[6] = system: Shank3b KO transgenic model of PMS; assay: Audiogenic seizure threshold test; assay type: in vivo; conditions: Shank3b KO mice, single dose 30 mg/kg i.p., 124 db 60 s stimulus
Method: as §2
Seizure threshold as assessed by audiogenic seizures was assessed in a separate cohort with N = 10 per group. […]

[7] = system: Shank3b KO transgenic model of PMS; assay: Marble burying test (species typical behaviors); assay type: in vivo, mice; conditions: single dose 30 mg/kg i.p.
Method: as §2
Day 5: Activities of daily living / species typical behaviors as assessed by marble burying. […]

[8] = system: person with a genetically confirmed diagnosis of Phelan McDermid Syndrome; assay: Visual Evoked Potentials in a Phelan McDermid Syndrome subject; assay type: in vivo; conditions: human PMS subject, 120 mg/m^2 i.v. over 6 hours
Method: as §1
Seizure frequency and Visual Evoked Potentials (VEPs) were assessed alongside clinical measures. VEPs provide a noninvasive technique to evaluate the functional integrity of visual pathways in the brain from the retina to the visual cortex via the optic nerve/optic radiations. The VEP is recorded from the head’s surface, over the visual cortex, and is extracted from ongoing EEG through signal averaging. VEPs reflect the sum of excitatory and inhibitory postsynaptic potentials occurring on apical dendrites (Zemon et al., 1986) which modulate excitatory and inhibitory signals received by the pyramidal cells. The major positive and negative peaks and troughs in VEP waveforms reflect different cellular events. […]

[9] = system: Shank3b KO transgenic model of PMS; assay: Excessive self-grooming test (self-injurious behavior); assay type: in vivo, mice; conditions: single dose 30 mg/kg i.p.
Method: as §2, with “experiment.” for “experiment. Only healthy animals were used. No prophylactic or therapeutic treatment was to be administered during the acclimatization period.”
Day 2: Excessive grooming leading to skin lesions. […] During this test, time spent grooming in all sequences: face-wiping, scratching/rubbing of head and ears, and full-body grooming was scored by an observer blind to genotype during the scoring.

[10] = system: induced pluripotent stem (IPS) cell lines derived from PMS patients; conditions: PMS patient-derived IPS cell lines; cited from earlier work
Shank3 knockout mouse = conditions: Shank3 exon 4-9 deletion mouse; cited from earlier work
Shank3 knockout mice = conditions: placebo controlled, 12 weeks of treatment; cited from earlier work
[11] = Shank3 knockout mice, 30 mg/kg i.p. single dose

Compound: CC(C)=CCC/C(C)=C/CC/C(C)=C/CN1C(=O)c2cccc(O)c2Nc2c(O)cc(O)cc21 [AMO-01, 10-farnesyl-4,6,8-trihydroxy-dibenzodiazepin-11-one]
- Recurrence of seizure events after infusion ([1]; 120 mg/m^2 i.v. over 6 hours): Approximately three weeks after the study drug infusion
- Social, behavioral and motor changes during seizure-free period ([1]; 120 mg/m^2 i.v. over 6 hours): became more social, more engaged (e.g. better eye contact), more cooperative, less restless, and their motor skills also improved
- Seizure occurrence after infusion ([1]; 120 mg/m^2 i.v. over 6 hours, baseline 3 to 4 seizures a week): seizures stopped altogether for the next two weeks
- Impending seizure episode at time of infusion ([1]; single i.v. infusion 120 mg/m^2 over 6 hours): appeared to completely abort the impending seizure episode
- Anxiety deficit in light dark box test ([2]; Shank3b-/- KO mice, Day 1): significantly reduced the deficit shown in Shank3b^-/- mice (p <0.0001) although this reversal was not complete
- Effect on light dark box anxiety behavior ([2]; Wild Type mice): no significant effect
- Response to social novelty (time in interaction with familiar or novel mouse) ([3]; Shank3b KO mice, Day 3, 30 mg/kg): rescue of response to social novelty; also recorded: normalizes the differential response to social novelty
- Response to social novelty (time in interaction with familiar or novel mouse) ([3]; Wild Type mice): not affected by treatment
- Deficits across anxiety, grooming, sociability, sensori-motor and species typical behaviour domains [4, 11]: reversed deficits in all of these domains
- Duration of rescue of the phenotype after a single dose [4, 11]: persisted for at least five days
- Effect across anxiety, grooming, sociability, sensori-motor function, species typical behaviours, cognition ([4]; Wild Type mice, 30 mg/kg i.p.): without effect
- Beam walking deficit ([5]; Shank3b-/- KO mice, Day 4): significantly reduced the deficit shown in Shank3b^-/- mice (p <0.0001). This reversal was complete
- Effect on beam walking behavior ([5]; Wild Type mice): no significant effect
- Audiogenic seizure threshold [6]: rescue of lowered audiogenic seizure threshold
- Marble burying deficit ([7]; Shank3b-/- KO mice, Day 5): significantly reduced the deficit shown in Shank3b^-/- KO mice (p <0.0001). This reversal was complete
- Effect on marble burying behavior ([7]; Wild Type mice): no significant effect
- Visual Evoked Potentials before vs six hours after infusion [8]: ameliorated by treatment
- Excessive self-grooming deficit ([9]; Shank3b-/- KO mice, Day 2): significantly reduced the deficit shown in Shank3b^-/- mice (p <0.0001). This reversal was complete
- Effect on self-grooming ([9]; Wild Type mice): no significant effect

Compound: IGF-1: insulin-like growth factor 1 (IGF-1)
- Impaired post-synaptic AMPA and NMDA receptor responses / excitatory synapse deficits [10]: rescued
- Phenotype / deficits of Shank3 knockout mouse (Shank3 knockout mouse): deficits in this model reversed; also recorded: rescue of the phenotype
- Social, repetitive and aberrant behaviors (Shank3 knockout mice): improvements in social, repetitive and aberrant behaviors
